Laboratory results from PubChem BioAssay AID1963959 (Molecular Pharmacology Branch, DTP, NCI, 2024).

Test system: T-47D spheroids with HUVEC/MSC, viability
Test: Anticancer human tumor T-47D cell line growth inhibition [PI3K];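 also: spheroids exposed to agents for seven days before reading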;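 as to viability, T/C: percent of DMSO vehicle control luminescence so 100% = untreated growth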
Conditions: for IC50: curve of first compound; for viability, T/C: stronger effect = lower value
How it was run: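 Targeted small molecules plus PI3K inhibitors, half-log dose series from Cmax (default top 10 microM), were applied to heterotypic spheroids of cancer cells with HUVEC and MSCs. Viability indicated growth inhibition.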

[1] = second compound 0.0316 µM, first compound 0.000316 µM
[2] = second compound 0.0316 µM, first compound 0.001 µM
[3] = second compound 0.0316 µM, first compound 0.00316 µM
[4] = second compound 0.0316 µM, first compound 0.01 µM
[5] = second compound 0.0316 µM, first compound 0.0316 µM
[6] = second compound 0.0316 µM, first compound 0.1 µM
[7] = second compound 0.1 µM, first compound 0.000316 µM
[8] = second compound 0.1 µM, first compound 0.001 µM
[9] = second compound 0.1 µM, first compound 0.00316 µM
[10] = second compound 0.1 µM, first compound 0.01 µM
[11] = second compound 0.1 µM, first compound 0.0316 µM
[12] = second compound 0.1 µM, first compound 0.1 µM
[13] = second compound 0.316 µM, first compound 0.000316 µM
[14] = second compound 0.316 µM, first compound 0.001 µM
[15] = second compound 0.316 µM, first compound 0.00316 µM
[16] = second compound 0.316 µM, first compound 0.01 µM
[17] = second compound 0.316 µM, first compound 0.0316 µM
[18] = second compound 0.316 µM, first compound 0.1 µM
[19] = second compound 1 µM, first compound 0.000316 µM
[20] = second compound 1 µM, first compound 0.001 µM
[21] = second compound 1 µM, first compound 0.00316 µM
[22] = second compound 1 µM, first compound 0.01 µM
[23] = second compound 1 µM, first compound 0.0316 µM
[24] = second compound 1 µM, first compound 0.1 µM
[25] = second compound 3.16 µM, first compound 0.000316 µM
[26] = second compound 3.16 µM, first compound 0.001 µM
[27] = second compound 3.16 µM, first compound 0.00316 µM
[28] = second compound 3.16 µM, first compound 0.01 µM
[29] = second compound 3.16 µM, first compound 0.0316 µM
[30] = second compound 3.16 µM, first compound 0.1 µM
[31] = second compound 10 µM, first compound 0.000316 µM
[32] = second compound 10 µM, first compound 0.001 µM
[33] = second compound 10 µM, first compound 0.00316 µM
[34] = second compound 10 µM, first compound 0.01 µM
[35] = second compound 10 µM, first compound 0.0316 µM
[36] = second compound 10 µM, first compound 0.1 µM
[37] = second compound 0.0316 µM, first compound 0.316 µM
[38] = second compound 0.0316 µM, first compound 1 µM
[39] = second compound 0.0316 µM, first compound 3.16 µM
[40] = second compound 0.0316 µM, first compound 10 µM
[41] = second compound 0.1 µM, first compound 0.316 µM
[42] = second compound 0.1 µM, first compound 1 µM
[43] = second compound 0.1 µM, first compound 3.16 µM
[44] = second compound 0.1 µM, first compound 10 µM
[45] = second compound 0.316 µM, first compound 0.316 µM
[46] = second compound 0.316 µM, first compound 1 µM
[47] = second compound 0.316 µM, first compound 3.16 µM
[48] = second compound 0.316 µM, first compound 10 µM
[49] = second compound 1 µM, first compound 0.316 µM
[50] = second compound 1 µM, first compound 1 µM
[51] = second compound 1 µM, first compound 3.16 µM
[52] = second compound 1 µM, first compound 10 µM
[53] = second compound 3.16 µM, first compound 0.316 µM
[54] = second compound 3.16 µM, first compound 1 µM
[55] = second compound 3.16 µM, first compound 3.16 µM
[56] = second compound 3.16 µM, first compound 10 µM
[57] = second compound 10 µM, first compound 0.316 µM
[58] = second compound 10 µM, first compound 1 µM
[59] = second compound 10 µM, first compound 3.16 µM
[60] = second compound 10 µM, first compound 10 µM

CC(=O)c1c(C)c2cnc(Nc3ccc(N4CCNCC4)cn3)nc2n(C2CCCC2)c1=O + Cc1nc(NC(=O)N2CCCC2C(N)=O)sc1-c1ccnc(C(C)(C)C(F)(F)F)c1
IC50 (second compound 0.0316 µM): > 0.1 µM
IC50 (second compound 0.1 µM): > 0.1 µM
IC50 (second compound 0.316 µM): > 0.1 µM
IC50 (second compound 1 µM): > 0.1 µM
IC50 (second compound 3.16 µM): 0.0304 µM
IC50 (second compound 10 µM): < 0.000316 µM
viability, T/C [1]: 109%
viability, T/C [2]: 101%
viability, T/C [3]: 98.8%
viability, T/C [4]: 98.4%
viability, T/C [5]: 92.1%
viability, T/C [6]: 89.2%
viability, T/C [7]: 101%
viability, T/C [8]: 100%
viability, T/C [9]: 95.8%
viability, T/C [10]: 107%
viability, T/C [11]: 95.5%
viability, T/C [12]: 83%
viability, T/C [13]: 98.3%
viability, T/C [14]: 110%
viability, T/C [15]: 88%
viability, T/C [16]: 99.5%
viability, T/C [17]: 95.2%
viability, T/C [18]: 75.3%
viability, T/C [19]: 98.4%
viability, T/C [20]: 90.7%
viability, T/C [21]: 85.9%
viability, T/C [22]: 82.7%
viability, T/C [23]: 86.6%
viability, T/C [24]: 61.8%
viability, T/C [25]: 65.7%
viability, T/C [26]: 66.8%
viability, T/C [27]: 69.3%
viability, T/C [28]: 64.2%
viability, T/C [29]: 49.6%
viability, T/C [30]: 42.6%
viability, T/C [31]: 37.1%
viability, T/C [32]: 39.8%
viability, T/C [33]: 35.1%
viability, T/C [34]: 31.3%
viability, T/C [35]: 23.1%
viability, T/C [36]: 29.3%

CC(C)n1nc(-c2ccc3oc(N)nc3c2)c2c(N)ncnc21 + Cc1nc(NC(=O)N2CCCC2C(N)=O)sc1-c1ccnc(C(C)(C)C(F)(F)F)c1
IC50 (second compound 0.0316 µM): 0.0726 µM
IC50 (second compound 0.1 µM): 0.0608 µM
IC50 (second compound 0.316 µM): 0.0525 µM
IC50 (second compound 1 µM): 0.0267 µM
IC50 (second compound 3.16 µM): 0.00907 µM
IC50 (second compound 10 µM): < 0.000316 µM
viability, T/C [1]: 106%
viability, T/C [2]: 94.2%
viability, T/C [3]: 95.9%
viability, T/C [4]: 95.9%
viability, T/C [5]: 78.8%
viability, T/C [6]: 38.7%
viability, T/C [7]: 110%
viability, T/C [8]: 87.2%
viability, T/C [9]: 99.3%
viability, T/C [10]: 109%
viability, T/C [11]: 79%
viability, T/C [12]: 27.9%
viability, T/C [13]: 101%
viability, T/C [14]: 98.9%
viability, T/C [15]: 82.3%
viability, T/C [16]: 92.7%
viability, T/C [17]: 67.4%
viability, T/C [18]: 26.9%
viability, T/C [19]: 89%
viability, T/C [20]: 93.2%
viability, T/C [21]: 86.3%
viability, T/C [22]: 70.7%
viability, T/C [23]: 47%
viability, T/C [24]: 21.2%
viability, T/C [25]: 62.9%
viability, T/C [26]: 68.3%
viability, T/C [27]: 64.6%
viability, T/C [28]: 42.7%
viability, T/C [29]: 33.1%
viability, T/C [30]: 6.08%
viability, T/C [31]: 37.5%
viability, T/C [32]: 40.2%
viability, T/C [33]: 33.1%
viability, T/C [34]: 21.7%
viability, T/C [35]: 12.8%
viability, T/C [36]: 2.67%

CC1(C)CCC(CN2CCN(c3ccc(C(=O)NS(=O)(=O)c4ccc(NCC5CCOCC5)c([N+](=O)[O-])c4)c(Oc4cnc5[nH]ccc5c4)c3)CC2)=C(c2ccc(Cl)cc2)C1 + Cc1nc(NC(=O)N2CCCC2C(N)=O)sc1-c1ccnc(C(C)(C)C(F)(F)F)c1
IC50 (second compound 0.0316 µM): > 10 µM
IC50 (second compound 0.1 µM): > 10 µM
IC50 (second compound 0.316 µM): > 10 µM
IC50 (second compound 1 µM): > 10 µM
IC50 (second compound 3.16 µM): > 10 µM
IC50 (second compound 10 µM): < 0.0316 µM
viability, T/C [5]: 106%
viability, T/C [6]: 94.2%
viability, T/C [37]: 111%
viability, T/C [38]: 99.2%
viability, T/C [39]: 78.1%
viability, T/C [40]: 87.8%
viability, T/C [11]: 118%
viability, T/C [12]: 92.3%
viability, T/C [41]: 92.9%
viability, T/C [42]: 89.6%
viability, T/C [43]: 108%
viability, T/C [44]: 73.3%
viability, T/C [17]: 98.8%
viability, T/C [18]: 101%
viability, T/C [45]: 89.3%
viability, T/C [46]: 94.3%
viability, T/C [47]: 94%
viability, T/C [48]: 80.1%
viability, T/C [23]: 99.4%
viability, T/C [24]: 99.1%
viability, T/C [49]: 102%
viability, T/C [50]: 85.3%
viability, T/C [51]: 76.9%
viability, T/C [52]: 71.2%
viability, T/C [29]: 78.5%
viability, T/C [30]: 65.6%
viability, T/C [53]: 64.2%
viability, T/C [54]: 59.8%
viability, T/C [55]: 64.5%
viability, T/C [56]: 57.1%
viability, T/C [35]: 40.1%
viability, T/C [36]: 41.7%
viability, T/C [57]: 37%
viability, T/C [58]: 31.4%
viability, T/C [59]: 30.2%
viability, T/C [60]: 34.2%

CCCS(=O)(=O)Nc1ccc(F)c(C(=O)c2c[nH]c3ncc(-c4ccc(Cl)cc4)cc23)c1F + Cc1nc(NC(=O)N2CCCC2C(N)=O)sc1-c1ccnc(C(C)(C)C(F)(F)F)c1
IC50 (second compound 0.0316 µM): 9.2 µM
IC50 (second compound 0.1 µM): 8.1 µM
IC50 (second compound 0.316 µM): 7.63 µM
IC50 (second compound 1 µM): 7.35 µM
IC50 (second compound 3.16 µM): 4.41 µM
IC50 (second compound 10 µM): < 0.0316 µM
viability, T/C [5]: 95.4%
viability, T/C [6]: 92.7%
viability, T/C [37]: 100%
viability, T/C [38]: 94.4%
viability, T/C [39]: 108%
viability, T/C [40]: 46.1%
viability, T/C [11]: 93.1%
viability, T/C [12]: 92.5%
viability, T/C [41]: 107%
viability, T/C [42]: 91.4%
viability, T/C [43]: 85.9%
viability, T/C [44]: 41.7%
viability, T/C [17]: 99.8%
viability, T/C [18]: 93%
viability, T/C [45]: 89.3%
viability, T/C [46]: 90.5%
viability, T/C [47]: 76%
viability, T/C [48]: 41.7%
viability, T/C [23]: 83.5%
viability, T/C [24]: 82.3%
viability, T/C [49]: 81.5%
viability, T/C [50]: 78.3%
viability, T/C [51]: 78.4%
viability, T/C [52]: 39.7%
viability, T/C [29]: 75.3%
viability, T/C [30]: 76.9%
viability, T/C [53]: 79%
viability, T/C [54]: 81.5%
viability, T/C [55]: 56%
viability, T/C [56]: 35%
viability, T/C [35]: 35.3%
viability, T/C [36]: 40.7%
viability, T/C [57]: 41.2%
viability, T/C [58]: 37.8%
viability, T/C [59]: 38.3%
viability, T/C [60]: 32.8%

CNC(=O)c1ccc(N2C(=S)N(c3ccc(C#N)c(C(F)(F)F)c3)C(=O)C2(C)C)cc1F + Cc1nc(NC(=O)N2CCCC2C(N)=O)sc1-c1ccnc(C(C)(C)C(F)(F)F)c1
IC50 (second compound 0.0316 µM): > 10 µM
IC50 (second compound 0.1 µM): > 10 µM
IC50 (second compound 0.316 µM): > 10 µM
IC50 (second compound 1 µM): > 10 µM
IC50 (second compound 3.16 µM): > 10 µM
IC50 (second compound 10 µM): < 0.0316 µM
viability, T/C [5]: 113%
viability, T/C [6]: 82%
viability, T/C [37]: 97%
viability, T/C [38]: 87.1%
viability, T/C [39]: 91.1%
viability, T/C [40]: 87.9%
viability, T/C [11]: 111%
viability, T/C [12]: 96.5%
viability, T/C [41]: 93.2%
viability, T/C [42]: 88.4%
viability, T/C [43]: 97.7%
viability, T/C [44]: 84.9%
viability, T/C [17]: 91.8%
viability, T/C [18]: 85%
viability, T/C [45]: 94.3%
viability, T/C [46]: 85.9%
viability, T/C [47]: 101%
viability, T/C [48]: 88.5%
viability, T/C [23]: 82.9%
viability, T/C [24]: 96.4%
viability, T/C [49]: 85.1%
viability, T/C [50]: 78.3%
viability, T/C [51]: 91.9%
viability, T/C [52]: 66.8%
viability, T/C [29]: 72%
viability, T/C [30]: 76%
viability, T/C [53]: 72.2%
viability, T/C [54]: 69.5%
viability, T/C [55]: 62.3%
viability, T/C [56]: 58%
viability, T/C [35]: 43.2%
viability, T/C [36]: 41.2%
viability, T/C [57]: 40.5%
viability, T/C [58]: 44.5%
viability, T/C [59]: 33.7%
viability, T/C [60]: 30.4%
